Laboratory results from patent US7579324B2, “Conjugates of biologically active compounds, methods for their preparation and use, formulation and pharmaceutical applications thereof” (c-a-i-r biosciences GmbH, priority 2002, dated 2009).

Tested on: HeLa or JURKAT cells
Assay: Cytotoxicity assay (Alamar Blue) with guanosine rescue
Type: cell-based
Protocol: HeLa cells (DSMZ, ACC 57) and Jurkat cells (DSMZ, ACC 282) in exponential growth phase are exposed for 3 days to test compounds. The number of surviving cells is then determined by the Alamar Blue assay (Serotec Inc.). This assay incorporates a fluorometric growth indicator based on detection of metabolic activity. Specifically, the system incorporates an oxidation-reduction indicator that fluoresces in response to chemical reduction of the growth medium resulting from cell growth. As cells grow in culture, innate metabolic activity results in a chemical reduction of the immediate surrounding environment. Continued growth maintains a reduced environment while inhibition of growth maintains an oxidized environment. […] Fluorescence is monitored at 560 nm (Exc.) and 590 nm Em.
HeLa cells (1×10^3) or JURKAT cells (1×10^3) are plated in 100 μl MEM medium (with Earle's salt; Biochrom KG) containing 10% FBS, 2 mM L-glutamine, and non-essential animo acids in 96-well plates and incubated at 37° C. and 5% CO2 atmosphere. […] The fluorescence is then measured as described above and the LD50 is determined based on a sigmoidal dose response regression. […] Any toxicity still detected can then be ascribed either to other biological effects of the of T—L—C conjugate of mycophenolic acid, or is due to the very high intracellular concentration of mycophenolic acid, following concentrative uptake into the cell.

COc1c(C)c2c(c(O)c1C/C=C(\C)CCC(=O)O)C(=O)OC2 [Mycophenolic acid]
effect in the presence of guanosine (50 μM guanosine in culture medium): completely removed | IC50 (normal culture conditions, HeLa or JURKAT): < 2000 nM
